Reference: US20090306342A1, “BINDING OF MOLECULES” (BIO-LAYER PTY LIMITED, priority 2005, published 2009)
Entries after “also recorded” stand apart in the source; their conditions may differ.

Key:
Human IgG = assay: SPR IgG binding assay on gold (Example 4); details: IgG 10-100 ug/mL, polyacrylic acid on gold, FIG. 7
Procedure: Slides were then rinsed in Ethanol and incubated in a solution of 1% Polyacrylic acid. 2% w/v Polyacrylic acid was prepared by adding […] of Stock 10% w/v PAA solution (Poly(Acrylic Acid) MW 50K 10% w/v solution in DMF) to […] (N,N-Dimethylformamide (DMF) Labscan HPLC Grade—Dried over sieves and filtered). 100 mM solutions of NHS and DIC were prepared in dry DMF (N-Hydroxysuccinimide (NHS) (Aldrich cat: 130672), N,N′-Diisopropylcarbodiimide (DIC) (Sigma Aldrich cat: D125407)). 15 mL of 100 mM NHS and 15 mL of 100 mM DIC were added to 30 mL of 2% w/v of PAA solution and shaken on a RATEK platform mixer with speed setting 70 for 10 minutes. This gave a final 1.0% w/v solution of activated PAA. Each amino functionalized gold slide was placed in 10 mL of activated 1% wlv PAA solution and allowed to shake on a RATEK platform mixer with speed setting […] for 1 hour. The slides were then rinsed with dry DMF and using house nitrogen with a filter pipette tip in the end of the hose, the slides were blown dry using a concentrated flow over each slide. […]
The first concentration of IgG to be flowed through the cell and over the slide was 10 μg/mL. […] After the final concentration of 100 μg/mL IgG was analyzed, the signal was monitored by flowing 10 mM Phosphate Buffered Saline pH7.4 with 0.2% Tween20 over the slide. […]

Fc of an antibody = details: Protein A binding region; cited from earlier work

NCCNc1nc(NCCc2ccc(O)cc2)nc(Nc2ccccc2)n1 [APA, 2-(2-aminoethylamino)-4-anilino-6-tyramino-s-triazine]
IgG binding by SPR (Human IgG): poor or non-existent
affinity for the Fc of an antibody (Fc of an antibody): medium affinity; also recorded: weakly binds
